Experimental data from US11753363B2, “13-oxidized ingenol derivative and use thereof” (Tianjin Pharmaceutical Da Ren Tang Group Corp., Ltd. …, priority 2017, dated 2023).
Converted amounts (≈) assume the structure as drawn.

How the values were obtained:
Format in all cases: cell-based
[1] = system: neutrophilic granulocytes; experiment: Neutrophil oxidative burst (luminol chemiluminescence); settings: Neutrophil; 3 μg/mL; rat neutrophils; (Csample−Ccontrol)/Ccontrol×100%; read-out: Efficiency of compounds in stimulating neutrophil oxidative burst
Procedure: This example investigated the effect of compound on neutrophil oxidative burst and calculated the efficiency of each compound in stimulating neutrophil oxidative burst.
Blood was taken from the abdominal aorta of rat. The neutrophilic granulocytes were isolated by the operational procedure of the rat peripheral blood neutrophil isolation kit. The neutrophilic granulocytes were re-suspended by Hanks, and were plated in a 96-well white plate at 1×10^5 cells/well, 80 μL/well; 1 mM of Luminol was added at 10 μL/well; 10 μL of the sample was added to each well, and the degree of oxidative burst was evaluated by chemiluminescence. Calculation formula of Efficiency: Efficiency (%)=(Csample−Ccontrol)/Ccontrol×100%

[2] = system: A549 (human lung cancer cells); experiment: Inhibition of proliferation of tumor cell lines (MTT), A549; settings: Homo sapiens, A549, 72 h, read-out: IC50 value of compound for inhibition of proliferation of tumor cell lines, A549
Procedure: (§1) In this example, the inhibitory activity of compounds of the present invention against proliferation of seven human tumor cell lines and mouse B16-F10 melanoma cells was tested in vitro, and the IC50 value (50% inhibitory concentration) of compounds against each tumor cell line was calculated.
(§2) The seven human tumor cell lines are: MCF-7 (human breast cancer cells), LOVO (human colon cancer cells), A549 (human lung cancer cells), BGC-823 (human gastric cancer cells), SMMC-7721 (human liver cancer cells), K562 (human leukemia cells), and HeLa (human cervical cancer cells).
(§3) IC50 values of the compounds for A549, BGC-823, LOVO, MCF-7, SMMC-7721, HeLa, and B16-F10 cells were tested. The above cells were routinely cultured in 1640 nutrient solution containing 10% calf serum, with passage for 1 time every 2 days, and the cells in logarithmic growth phase were taken for experiments. After the A549, BGC-823, LOVO, MCF-7, SMMC-7721, HeLa and B16-F10 cells in logarithmic growth phase were subjected to 0.25% trypsin digestion, they were blown into a single cell suspension, and then the cell concentration was adjusted to about 1×10^5·mL^−1 using RPMI 1640 solution containing 10% calf serum. The cells were seeded in a 96-well culture plate at 100 μL per well, and cultured for 24 hours until the cells were attached. K562 cells were taken and centrifuged and diluted into 2×10^5·mL^−1 single cell suspension with RPMI 1640 solution containing 10% calf serum, and inoculated into a 96-well culture plate at 100 μL per well.
(§4) 100 μL of sample solution with different concentrations to be tested were added to the above 96-well plate, each concentration was added to 4 wells in parallel, and the cell control group was added with an equal volume of RPMI 1640 medium containing 10% calf serum to make a reaction volume of 200 μL. After incubating in an incubator at 37° C., 5% CO2 for 72 h, 10 μL of 5 mg·mL^−1 MTT solution was added to each well, and incubated at 37° C. for 4 h. The supernatant was carefully aspirated, 180 μL of DMSO was added to each well followed by shaking, and the absorbance (OD) value was measured at 570 nm on the microplate reader. The inhibition rate was calculated, and regression equation was established with the logarithmic value of the sample concentration and the inhibition rate (IR) to find the IC50 value of the compound against the cells to be tested. IR (%)=(1−OD value of the experimental group/OD value of the cell control group)×100%

[3] = system: BGC-823 (human gastric cancer cells); experiment: Inhibition of proliferation of tumor cell lines (MTT), BGC-823; settings: Homo sapiens, BGC-823, 72 h, read-out: IC50 value of compound for inhibition of proliferation of tumor cell lines, BGC-823
Procedure: as §1, §2, §3, §4

[4] = system: LOVO (human colon cancer cells); experiment: Inhibition of proliferation of tumor cell lines (MTT), LOVO; settings: Homo sapiens, 72 h, read-out: IC50 value of compound for inhibition of proliferation of tumor cell lines, LOVO
Procedure: as §1, §2, §3, §4

[5] = system: K562 (human leukemia cells); experiment: Inhibition of proliferation of tumor cell lines (MTT), K562; settings: Homo sapiens, K562, 72 h, read-out: IC50 value of compound for inhibition of proliferation of tumor cell lines, K562
Procedure: as §1, §2, §3, §4

[6] = system: SMMC-7721 (human liver cancer cells); experiment: Inhibition of proliferation of tumor cell lines (MTT), SMMC-7721; settings: Homo sapiens, SMMC-7721, 72 h, read-out: IC50 value of compound for inhibition of proliferation of tumor cell lines, SMMC-7721
Procedure: as §1, §2, §3, §4

[7] = system: MCF-7 (human breast cancer cells); experiment: Inhibition of proliferation of tumor cell lines (MTT), MCF-7; settings: Homo sapiens, MCF7, MCF-7, 72 h, read-out: IC50 value of compound for inhibition of proliferation of tumor cell lines, MCF-7
Procedure: as §1, §2, §3, §4

[8] = system: HeLa (human cervical cancer cells); experiment: Inhibition of proliferation of tumor cell lines (MTT), HeLa; settings: Homo sapiens, 72 h, read-out: IC50 value of compound for inhibition of proliferation of tumor cell lines, HeLA
Procedure: as §1, §2, §3, §4

Row | Structure (SMILES) | activation at 3 µg/mL [1] [%] | IC50 [2] [µg/mL] | IC50 [3] [µg/mL] | IC50 [4] [µg/mL] | IC50 [5] [µg/mL] | IC50 [6] [µg/mL] | IC50 [7] [µg/mL] | IC50 [8] [µg/mL]
1 | CCCCCC(=O)O[C@@]12C[C@@H](C)[C@]34C=C(C)[C@H](O)[C@@]3(O)[C@H](O)C(CO)=C[C@H](C4=O)[C@@H]1C2(C)C [Compound 6, 13-O-n-hexanoyl-ingenol] | 52.2 |  |  |  |  |  |  | 
2 | CC1=C[C@]23C(=O)[C@@H](C4OC4(C)[C@@H](O)[C@]2(O)[C@H]1O)[C@H]1C(C[C@H]3C)C1(C)C (stereo partly drawn) [Compound 1e, 6,7-epoxy-20-deoxy-ingenol] |  | > 200 | > 200 | > 200 | 5.52 (≈ 15.8 µM) | > 200 | > 200 | 
3 | CCCCCCCCCCCC(=O)O[C@@]12C[C@@H](C)[C@]34C=C(C)[C@H](O)[C@@]3(O)[C@H](O)C(CO)=C[C@H](C4=O)[C@@H]1C2(C)C [Compound 1c, 13-O-dodecanoyl-ingenol] |  | 11.1 (≈ 20.3 µM) | 6.19 (≈ 11.3 µM) | 8.97 (≈ 16.4 µM) | 5.51 (≈ 10.1 µM) | 6.49 (≈ 11.9 µM) | 6.36 (≈ 11.6 µM) | 15.1 (≈ 27.6 µM)
4 | CCCCCCCCCCCC(=O)O[C@@]12C[C@@H](C)[C@]34C=C(C)[C@H](O)[C@@]3(O)[C@H](O)C(C)=C[C@H](C4=O)[C@@H]1C2(C)C [Compound 1d, 20-deoxy-13-O-dodecanoyl-ingenol] |  | 26.8 (≈ 50.5 µM) | 15.4 (≈ 29 µM) | 19.2 (≈ 36.2 µM) | 6.88 (≈ 13 µM) | 31.5 (≈ 59.4 µM) | 29.2 (≈ 55 µM) | 
5 | CCCCCCCCCC(=O)O[C@@]12C[C@@H](C)[C@]34C=C(C)[C@H](O)[C@@]3(O)[C@H](O)C(CO)=C[C@H](C4=O)[C@@H]1C2(C)C [Compound 1a, 13-O-decanoyl-ingenol] | 65.2 | 15.1 (≈ 29.1 µM) | 15 (≈ 28.9 µM) | 9.77 (≈ 18.8 µM) | 0.7 (≈ 1.35 µM) | 19.5 (≈ 37.6 µM) | 13.8 (≈ 26.6 µM) | 29.1 (≈ 56.1 µM)
6 | CCCCCCCCCCCC(=O)O[C@@]12C[C@@H](C)[C@]34C=C(C)[C@H](O)[C@@]3(O)[C@H](O)C3(COC(=O)C(C)C(C)C)OC3[C@H](C4=O)[C@@H]1C2(C)C (stereo partly drawn) [Compound 1f, 6,7-epoxy-20-O-(2,3-dimethylbutyryl)-13-O-dodecanoyl-ingenol] |  |  |  |  |  |  |  | 16.8 (≈ 25.4 µM)
7 | CCCCCCCCCCCC(=O)O[C@@]12C[C@@H](C)[C@]34C=C(C)[C@@H]5OC(C)(C)O[C@@]53[C@H](O)C(CO)=C[C@H](C4=O)[C@@H]1C2(C)C [Compound 2c, 13-O-dodecanoyl-ingenol 3,4-acetonide] | 64.6 | 9.59 (≈ 16.3 µM) | 5.3 (≈ 9.03 µM) | 10.3 (≈ 17.6 µM) | 0.42 (≈ 0.716 µM) | 8.21 (≈ 14 µM) | 8.89 (≈ 15.1 µM) | 
8 | C/C=C(/C)C(=O)OCC1=C[C@@H]2C(=O)[C@]3(C=C(C)[C@H](OC(=O)/C(C)=C\C)[C@@]3(O)[C@@H]1O)[C@H](C)C[C@]1(OC(=O)CCCCCCCCCCC)[C@H]2C1(C)C [Compound 15a, 3,20-O-diangeloyl-13-O-dodecanoyl-ingenol] |  | > 100 | > 100 | > 100 | 3.22 (≈ 4.53 µM) | 26.9 (≈ 37.8 µM) | > 100 | 
